Results as given in paper PMC3100590 (Journal of medicinal chemistry, 2011).
Where two headings read alike, the source gives them in different places.

Key:
dopamine D1 receptors = dopamine D1 receptors (Homo sapiens, UniProt P21728); test: Dopamine D1 receptor binding; conditions: data not shown
[1] = target: T1, human D3 dopamine receptor (D3R) (Homo sapiens, UniProt P35462); assay type: binding; conditions: for decrease of D3R binding affinity on replacing the amide by the amine linker: amine analogue vs corresponding amide (13b vs 19; 15b vs 8j); for D2/D3: ratio of Ki values
T1 sequence (P35462 whole entry): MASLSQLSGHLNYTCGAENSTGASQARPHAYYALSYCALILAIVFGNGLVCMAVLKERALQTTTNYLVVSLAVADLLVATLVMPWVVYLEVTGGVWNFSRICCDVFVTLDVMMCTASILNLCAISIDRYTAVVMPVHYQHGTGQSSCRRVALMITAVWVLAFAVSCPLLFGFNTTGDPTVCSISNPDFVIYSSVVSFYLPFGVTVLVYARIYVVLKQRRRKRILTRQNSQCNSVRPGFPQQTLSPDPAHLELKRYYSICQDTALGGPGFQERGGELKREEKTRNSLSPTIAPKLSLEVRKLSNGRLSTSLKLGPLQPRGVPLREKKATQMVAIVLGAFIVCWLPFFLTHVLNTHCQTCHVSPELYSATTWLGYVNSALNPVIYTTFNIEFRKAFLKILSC

hD3 (D3R) = hD3 (D3R) (Homo sapiens, UniProt P35462); test: Quinpirole-induced mitogenesis assay in hD3-transfected CHOp cells; assay type: cell-based
Sequence of hD3 (D3R) (P35462 whole entry): as above

[2] = target: human D2L dopamine receptor (D2R) (Homo sapiens, UniProt P14416); assay type: binding; conditions: for Ki: read-out: D2R Ki ± S.E.M., Table 2, HEK 293 hD2LR, 125I-IABN
Sequence of human D2L dopamine receptor (D2R) (P14416 whole entry): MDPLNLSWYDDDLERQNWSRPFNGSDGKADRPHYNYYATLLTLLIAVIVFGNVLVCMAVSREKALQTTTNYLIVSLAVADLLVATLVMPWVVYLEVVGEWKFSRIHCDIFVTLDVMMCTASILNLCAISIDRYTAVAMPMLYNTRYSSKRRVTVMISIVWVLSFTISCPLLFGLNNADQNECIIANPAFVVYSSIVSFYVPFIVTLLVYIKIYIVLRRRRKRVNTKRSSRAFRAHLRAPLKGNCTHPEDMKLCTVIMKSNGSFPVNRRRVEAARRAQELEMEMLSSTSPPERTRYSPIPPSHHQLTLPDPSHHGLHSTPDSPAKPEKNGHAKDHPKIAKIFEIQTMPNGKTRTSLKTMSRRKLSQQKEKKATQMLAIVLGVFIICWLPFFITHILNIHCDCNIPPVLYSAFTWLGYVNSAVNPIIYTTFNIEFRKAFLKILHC

[3] = target: T1, human D3 dopamine receptor (D3R); conditions: Table 2; previously reported, ref [6]; cited from earlier work

Sequence of dopamine D1 receptors (P21728 whole entry): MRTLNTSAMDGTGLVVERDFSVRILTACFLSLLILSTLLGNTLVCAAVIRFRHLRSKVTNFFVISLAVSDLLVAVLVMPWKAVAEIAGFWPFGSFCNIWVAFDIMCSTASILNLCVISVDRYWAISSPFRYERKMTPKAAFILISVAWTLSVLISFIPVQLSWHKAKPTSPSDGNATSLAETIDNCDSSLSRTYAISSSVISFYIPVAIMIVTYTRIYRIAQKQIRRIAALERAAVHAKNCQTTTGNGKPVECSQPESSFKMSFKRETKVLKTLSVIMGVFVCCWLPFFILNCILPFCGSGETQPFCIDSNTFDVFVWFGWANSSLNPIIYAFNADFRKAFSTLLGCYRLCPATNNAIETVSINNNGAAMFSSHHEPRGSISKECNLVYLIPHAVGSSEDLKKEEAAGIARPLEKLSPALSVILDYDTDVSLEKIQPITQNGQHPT

O=C(NCCC(F)CN1CCN(c2cccc(Cl)c2Cl)CC1)c1cc2ccccc2o1 (centres unmarked) [Compound 8d, N-(4-(4-(2,3-Dichlorophenyl)piperazin-1-yl)-3-fluorobutyl)benzofuran-2-carboxamide]
binding at dopamine D1 receptors (dopamine D1 receptors): selectivity over D1

O=C(NCCC(F)CN1CCN(c2cccc(Cl)c2Cl)CC1)c1cc2ccccc2[nH]1 (centres unmarked) [Compound 8h, N-(4-(4-(2,3-Dichlorophenyl)piperazin-1-yl)-3-fluorobutyl)-1H-indole-2-carboxamide]
D3R-selectivity over D2R [1]: > 130 fold

COc1ccccc1N1CCN(CC(F)CCNC(=O)c2ccc3c(c2)Cc2ccccc2-3)CC1 (centres unmarked) [Compound 8i, N-(3-Fluoro-4-(4-(2-methoxyphenyl)piperazin-1-yl)butyl)-9H-fluorene-2-carboxamide]
binding at dopamine D1 receptors (dopamine D1 receptors): selectivity over D1

O=C(NCCC(F)CN1CCN(c2cccc(Cl)c2Cl)CC1)c1ccc2c(c1)Cc1ccccc1-2 (centres unmarked) [Compound 8j, N-(4-(4-(2,3-Dichlorophenyl)piperazin-1-yl)-3-fluorobutyl)-9H-fluorene-2-carboxamide]
D3R-selectivity over D2R [1]: > 1000 fold | binding at dopamine D1 receptors (dopamine D1 receptors): selectivity over D1

COc1ccccc1N1CCN(CC(F)CCNC(=O)c2cc3ccccc3s2)CC1 (centres unmarked) [Compound 8k, N-(3-Fluoro-4-(4-(2-methoxyphenyl)piperazin-1-yl)butyl)benzo[b]thiophene-2-carboxamide]
D3R-selectivity over D2R [1]: > 60 fold

O=C(NCCC(F)CN1CCN(c2cccc(Cl)c2Cl)CC1)c1cc2ccccc2s1 (centres unmarked) [Compound 8l, N-(4-(4-(2,3-Dichlorophenyl)piperazin-1-yl)-3-fluorobutyl)benzo[b]thiophene-2-carboxamide]
D3R-selectivity over D2R [1]: > 130 fold

COc1ccc2[nH]c(C(=O)NCCC(F)CN3CCN(c4ccccc4OC)CC3)cc2c1 (centres unmarked) [Compound 8m, N-(3-Fluoro-4-(4-(2-methoxyphenyl)piperazin-1-yl)butyl)-5-methoxy-1H-indole-2-carboxamide]
D3R-selectivity over D2R [1]: > 60 fold

COc1ccc2[nH]c(C(=O)NCCC(F)CN3CCN(c4cccc(Cl)c4Cl)CC3)cc2c1 (centres unmarked) [Compound 8n, N-(4-(4-(2,3-Dichlorophenyl)piperazin-1-yl)-3-fluorobutyl)-5-methoxy-1H-indole-2-carboxamide]
D3R-selectivity over D2R [1]: > 130 fold | EC50 (hD3 (D3R)): 4.9 nM | functional profile in the D3R mitogenesis assay (hD3 (D3R)): more potent partial agonist than an antagonist | D3 mitogenesis % stimulation (hD3 (D3R); agonist mode, value in parentheses): 14.9%

CN(CCC(F)CN1CCN(c2cccc(Cl)c2Cl)CC1)Cc1ccc2c(c1)Cc1ccccc1-2 (centres unmarked) [Compound 15b, N-((9H-Fluoren-2-yl)methyl)-4-(4-(2,3-dichlorophenyl)piperazin-1-yl)-3-fluoro-N-methylbutan-1-amine]
D2R binding affinity increased on replacing the amide by the amine linker ([2]; 15b vs amide 8j): ~ 2 fold | decrease of D3R binding affinity on replacing the amide by the amine linker [1]: 150 fold

COc1ccccc1N1CCN(CCCCNC(=O)c2ccc3c(c2)Cc2ccccc2-3)CC1 [Compound 18, N-(4-(4-(2-methoxyphenyl)piperazin-1-yl)butyl)-9H-fluorene-2-carboxamide]
D2/D3 [3]: 185

N-(Benzo[b]thiophen-2-ylmethyl)-4-(4-(2,3-dichlorophenyl)piperazin-1-yl)-N-propylbutan-1-amine [Compound 13b]
D2R binding affinity reduced on replacing the amide by the amine linker ([2]; 13b vs amide 19): 2.5 fold | Ki [2]: 162 ± 1.2 nM | D3R-selectivity over D2R [1]: 2 fold | D2/D3 ([1]; Table 2): 2 | decrease of D3R binding affinity on replacing the amide by the amine linker [1]: 126 fold

N-(Benzo[b]thiophen-2-ylmethyl)-4-(4-(2-methoxyphenyl)piperazin-1-yl)-N-propylbutan-1-amine [Compound 13a]
Ki [2]: 69.9 ± 7.3 nM | D2/D3 ([1]; Table 2): 1 | Ki ([1]; read-out: D3R Ki ± S.E.M., Table 2, HEK 293 hD3R, 125I-IABN): 67.9 ± 2.4 nM
